Assay results from patent US20240376138A1, “Crystal Forms, Preparation Method And Application Of Aryl Phosphine Oxide Compound” (Chengdu Di'Ao Jiuhong Pharmaceutical Factory, priority 2021, published 2024).

Experiment: Solubility test
Type: physicochemical
Details: Solution with pH = 6.8, 25° C.±2° C., dihydrate

For `COc1cc(N2CCC(N3CCN(C)CC3)CC2)c(C)cc1Nc1ncc(Br)c(Nc2ccc(C)cc2P(C)(C)=O)n1` [Crystal form 1, (2-((5-bromo-2-((2-methoxy-5-methyl-4-(4-(4-methylpiperazin-1-yl)piperidin-1-yl)phenyl)amino)pyrimidin-4-yl)amino)-5-methylphenyl)dimethylphosphorus oxide dihydrate], the “Solubility for 24 h” value was 3260 µg/mL.
